How the values were obtained:
[1] = test system: GABA-gated chloride channels; assay: Electrophysiological Assay 1, whole cell patch-clamp of hippocampal neurons; type: cell-based; settings: C3 5 μM; GABA 10 μM; embryonic rat hippocampal neurons; FIG. 1
Protocol: Pregnant Sprague-Dawley rats, incubating embryos of 17-19 days gestation, were killed by cervical dislocation. The embryos were removed under aseptic conditions and the brains quickly excised and placed in Hank's balanced salt solution (HBSS, Gibco) at ambient room temperature (18-22° C.). The hippocampi were dissected out and chopped into fragments (˜2 mm^3) and transferred into an enzyme solution containing (in mM): NaCl 116, KCl 5.4, NaHCO3 26, NaH2PO4 1, CaCl2 1.5, MgSO4 1, EDTA 0.5, glucose 25, cysteine 1, and papain 20 U/ml (Sigma) and incubated at 37° C., 5% CO2, 100% relative humidity for 1 hr. Tissue fragments were washed in HBSS containing 1 mg/ml of bovine serum albumin (BSA) and 1 mg/ml of ovomucoid (both Sigma). Tissue was transferred into a further 3-4 ml of this solution and gently triturated into a single cell suspension using a fire-polished Pasteur pipette. The single cell suspension was layered on to 5 ml HBSS containing 10 mg/ml of BSA and 10 mg/ml of ovomucoid and centrifuged at 100× g for 10 min. […]
Agonist evoked membrane currents were recorded from hippocampal neurons using the whole cell configuration of the patch-clamp technique. […] Agonist-evoked whole cell currents were measured at their peak. Responses in the presence of drugs expressed as the arithmetic mean ±SEM of responses in the absence (control) or drugs.

[2] = test system: GABAA receptor complex (GRC); assay: [35S]TBPS binding, rat cerebellum; settings: 2 nM [35S]TBPS, 30 μM furosemide, FIG. 14

`CCn1cc(C(=O)O)c(=O)c2cc(NC3CCCc4ccccc43)c(Cl)cc21` (centres unmarked) [compound 3, 7-chloro-1-ethyl-6-(1,2,3,4-tetrahydronaphthyl-1-amino)-4-oxo-1,4-dihydroquinoline-3-carboxylic acid] was tested, and the “potentiating effect on GABA induced chloride currents” value [1] was “positive efficacy modulator of GABA-gated chloride channels” and the “effect on [35S]TBPS binding in absence or presence of furosemide” value [2] was “does not act directly at the same site on the GRC as the loop-diuretic furosemide”.
